Measured values published in patent publication US7723021B2, “Methods for treating lentivirus infections” (The J. David Gladstone Institutes, priority 2003, dated 2010).
Entries after “also recorded” stand apart in the source; their conditions may differ. Residues, ends and D or L forms follow the SMILES beside them. *: point of attachment. Cbz = O=C(OCc1ccccc1)*

Experiments:
[1] = test system: Vif-mediated depletion of APOBEC3G-HA in 293T cells; assay: Proteasome inhibitor panel in 293T cells transiently transfected with APOBEC3G-HA and Vif, immunoblot; type: cell-based; conditions: 12.5 μM, 15 hours
Protocol: 293T cells were transfected with the indicated amounts of expression vector DNA using the calcium phosphate method. Lysis buffers used for immunoblotting were (1) 100-400 mM NaCl, 50 mM Hepes, 0.2% NP40, 0-5 mM EDTA, 0.1 mM PMSF, plus complete protease inhibitor cocktail (Roche)(1 tablet/50 ml buffer) or (2) 50 mM Hepes, pH 7.2, 135 mM NaCl, 1% Triton X-100, 0.5% deoxycholate, 10% glycerol, 1 mM EDTA, 1× protease inhibitor cocktail (Calbiochem). Samples were analyzed using standard SDS-PAGE techniques.
For the proteasome inhibitor experiments in transiently transfected cells, 293T cells were transiently transfected with 0.1 μg of APOBEC3G-HA DNA, 2 μg of control vector DNA and 2 μg of either pcDNA3.1 Vif DNA vector or an additional 2 μg of control vector DNA. Twenty-four hours after transfection, the cells were treated with the indicated inhibitor and harvested 15 hours later. For the proteasome inhibitor experiments using infected H9 cells, H9 cells were infected by spinoculation as described above. Forty-four hours after infection, the cells were treated for 16 hours with either dimethylsulfoxide (DMSO) (0.1%) or 0.25 μM epoxomicin. All of the inhibitors (ALLN, MG132, epoxomicin, Calpain Inhibitor III, and clasto-Lactacystin-β-Lactone) were purchased from CalBiochem and were dissolved in DMSO.
To confirm this finding in a different system, a similar experiment was performed using 293T cells transiently transfected with an APOBEC3G-HA expression vector and either a Vif expression vector or a control vector. Twenty-four hours after transfection the cells were treated with a panel of different proteasome inhibitors for a 15-hour period. It was observed that the broadly acting proteasome inhibitors MG132 (12.5 μM) and ALLN (25 μM) as well as the more specific proteasome inhibitor clasto-Lactacystin-β-Lactone ([…], 20 μM) enhanced the levels of APOBEC3G-HA in the presence of Vif when compared to the diluent control sample (0.1% DMSO) (FIG. 8C, lanes 7 through 12).
FIG. 8A-C. Vif shortens the half-life of APOBEC3G, and proteasome inhibitors partially block the intracellular depletion of APOBEC3G-HA. (A) Pulse-Chase Radiolabeling. HEK 293 cells transiently transfected with APOBEC3G-HA and Vif or control vector DNA were pulse-labeled for 30 min. The initial pulse-labeled (t=0) samples were harvested, and the remaining samples were incubated with chase media for the indicated time points. After immunoprecipitation with anti-HA antibody, the samples were analyzed by SDS-PAGE and the gels were subjected to autoradiography. The relative intensity of the bands were quantified and the Vif (+) and Vif (−) samples were normalized to 1 and graphed (FIG. 8, right side). The T1/2 of APOBEC3G was 1.9 hours in the presence of Vif and 10 hours in the absence of Vif. (B) Proteasome inhibitor studies using infected H9 cells. Mock or HIV-1 wt-infected H9 cells were treated with the broadly active proteasome inhibitor epoxomicin (0.25 μM) or DMSO (0.1%) 44 hours after infection. Sixteen hours following treatment, the cells were harvested; and whole cell lysates were prepared by boiling the cells in Laemmli lysis buffer. Note that Epoxomicin caused an increase in endogenous APOBEC3G levels in the infected sample (compare lane 2 with lane 1). (C) Proteasome inhibitor studies using transiently-transfected 293T cells. Twenty-four hours following transfection of 293T cells with 0.1 μg APOBEC3G and 2 μg Vif or control vector DNA, the cells were treated with the indicated concentration of inhibitor for 15 hours. APOBEC3G-HA levels were elevated in the presence of the proteasome inhibitors MG132, ALLN, and clasto-lactacystin-β-lactone (lanes 8-11), but not in the presence of calpain inhibitor III (lane 12).

[2] = test system: Vif-induced degradation of polyubiquitylated APOBEC3G; assay: 293T cells cotransfected with APOBEC3G-HA, His-ubiquitin and Vif, with MG132, anti-HA immunoblot; type: cell-based; conditions: MG132 for the final 6 hours of culture
Protocol: To obtain further insight into the mechanism of Vif-induced degradation of APOBEC3G, it was investigated whether APOBEC3G is modified by ubiquitylation. APOBEC3G and His-ubiquitin expression vectors (Treier et al., 1994) were cotransfected into 293T cells in the presence or absence of Vif expression vector. After 48 hours in culture, cellular lysates were prepared. […] Immunoblotting of lysates prepared in the absence of APOBEC3G-HA confirmed that anti-HA antibodies selectively reacted with modified forms of APOBEC3G (FIG. 7C, lane 10). Coexpression of Vif was associated with a complete loss of these polyubiquitylated APOBEC3G species as well as diminished expression of unmodified APOBEC3G (FIG. 7C, lanes 6 and 8). To investigate whether the 26S proteasome mediated Vif-induced degradation of these polyubiquitylated APOBEC3G protein species, parallel experiments were performed in the presence of the proteasome inhibitor, MG132. […] However, it was also observed in multiple experiments that one of the many APOBEC3G degradation products appearing in Vif-expressing cells increased after the addition of MG132 (FIG. 7C, compare lanes 7 and 8). These findings raise the possibility that Vif action may involve multiple pathways including the targeting of select proteolytic fragments of APOBEC3G for degradation by the 26S proteasome.
FIG. 7. HIV-1 Vif induces degradation of APOBEC3G, and polyubiquitylated forms of APOBEC3G form a major target for Vif induced degradation. (A and B) Vif promotes degradation or extensive proteolysis of APOBEC3G as reflected by the loss of both N- and C-terminal immunoreactive epitopes. Graded amounts of expression vector DNA encoding HA-APOBEC3G or APOBEC3G-HA were co-transfected with and without Vif expression vector DNA into 293T cells. Cellular lysates prepared from these cultures were analyzed by immunoblotting with anti-HA antibodies. […] Note that Vif expression induces a loss of anti-HA immunoreactivity regardless of whether the HA epitope is positioned at the N- or C-terminus of APOBEC3G. (C) APOBEC3G is polyubiquitylated and Vif induces degradation of (Ub)n-APOBEC3G apparently by a proteasome-independent mechanism. 293T cells were cotransfected with APOBEC3G-HA and his-ubiquitin expression vectors in the presence or absence of Vif expression vector. 48 hours later, cellular lysates were prepared. As indicated, select cultures were supplemented with the proteasome inhibitor, MG132, for the final 6 hours of culture. Lysates were analyzed by immunoblotting with anti-HA antibodies. […] In addition to the polyubiquitylated forms of APOBEC3G-HA, degradation products of APOBEC3G-HA were apparent both in the presence and absence of Vif expression.

CC(C)C[C@@H](C=O)NC(=O)[C@H](CC(C)C)NC(=O)[C@H](CC(C)C)NC(=O)OCc1ccccc1 [MG132] (Cbz-Leu-Leu-Leu-aldehyde)
levels of APOBEC3G-HA in the presence of Vif compared to diluent control (0.1% DMSO) [1]: enhanced; also recorded: elevated | Vif-dependent disappearance of polyubiquitylated APOBEC3G [2]: did not block; also recorded: not blocked | accumulation of polyubiquitylated proteins within the cells [2]: increased accumulation | levels of unmodified APOBEC3G in the presence of Vif [2]: did not block the Vif-dependent disappearance of polyubiquitylated APOBEC3G or increase levels of the unmodified protein | one of the APOBEC3G degradation products in Vif-expressing cells [2]: increased in quantity
